System: ALK-positive or ROS1-positive advanced non-small cell lung cancer
Experiment: Phase I clinical trial, dose escalation and expansion phases: efficacy (RECIST 1.1)
Type: in vivo, human
Experimental: The anti-tumor efficacy is evaluated according to RECIST version 1.1. For patients initially evaluated as having a complete response (CR) or partial response (PR), efficacy should be confirmed at least 4 weeks later. In the patients with asymptomatic central nervous system (CNS) metastases, in addition to evaluating 5 extracranial target lesions, up to 5 intracranial target lesions will also be evaluated. The specific indicators are as follows:
"CR" is defined as the disappearance of all target lesions, and the diameters of the short axis of all the pathological lymph nodes (whether target or non-target lymph nodes) must be reduced to 10 mm or less.
"PR" is defined as a reduction of at least 30% in the total diameter of the target lesions, with the total diameter of the baseline as a reference value.
"PD" is defined as an increase of at least 20% in the total diameter of the target lesions, using the minimum total diameter in the study as a reference value (this value may include the total diameter of the baseline). In addition, the absolute value of the total diameter must increase by at least 5 mm (the appearance of one or more new lesions is also considered as progressive disease).
"SD" is defined as a state in which the reduction in target lesions is insufficient to achieve partial response and the increase is insufficient to achieve progressive disease.
"ORR" includes CR and PR, and is defined as the proportion of patients who achieve complete response or partial response.
"IC-ORR" includes CR or PR for confirmed intracranial lesions, and is defined as the proportion of the patients with complete response or partial response of intracranial lesions among the patients with intracranial lesions.
"DCR" is defined as the proportion of the patients who achieve response (PR+CR) and stable disease (SD) after a treatment.
"IC-DCR" is defined as the proportion of the patients who achieve intracranial response (PR+CR), intracranial stable disease (SD), and […] after a treatment among the patients with intracranial lesions.
"DOR" is defined as the time from the first assessment of CR or PR to progressive disease or death, and is only applicable to the patients who achieve response.
"IC-DOR" is defined as the time from the first assessment of intracranial CR or intracranial PR to progressive disease or death, and is only applicable to the patients whose intracranial lesions achieve response.
"TTR" is defined as the time from patient enrollment (first dose of investigational drug) to tumor response (CR/PR), based on the patients with objective response.
"IC-TTR" is defined as the time from patient enrollment (first dose of investigational drug) to intracranial tumor response (IC-CR/PR), based on the patients with intracranial objective response.
Approximately eight dose groups in total were set in the dose escalation phase, which were 5 (the starting dose), 10, 20, 40, 60, 80, 100, and 125 mg, respectively. Subjects in all the dose groups received a single dose on day 1 (D1), and the blood samples were collected for pharmacokinetic (PK) assay and tolerability observation. If no grade 2 or a higher-level adverse event related to the investigational drug occurred during the single-dose period (5 to 7 days) (if such events occurred, dose adjustments would be made based on the toxicity according to the protocol), the subject entered the multiple-dose period (i.e., treatment period) 5 to 7 days later (7 days after the first administration in the first dose group (i.e., starting the multiple-dose treatment on day 8), and the intervals for the subsequent dose groups were determined based on the obtained tolerability and PK data). […]

[2H]C([2H])([2H])n1nc2c(c1C#N)-c1cnc(N)c(c1)O[C@H](C)c1cc(F)ccc1C(=O)N(C)C2 [compound A, (10R)-7-amino-12-fluoro-2-(methyl-d3)-10,16-dimethyl-15-oxo-10,15,16,17-tetrahydro-2H-8,4-(metheno)pyrazolo[4,3-h][2,5,11]benzoxadiazacyclotetradecine-3-carbonitrile]
BOR CR (intracranial, 10mg (N=1)): 0 n (%) | BOR NE (intracranial, 10mg (N=1)): 0 n (%) | BOR PD (intracranial, 10mg (N=1)): 0 n (%) | BOR PR (intracranial, 10mg (N=1)): 1 (100) n (%) | BOR SD (intracranial, 10mg (N=1)): 0 n (%) | Confirmed IC-ORR (95% CI) (intracranial, 10mg (N=1)): 1 (100) (2.5, 100.0) n (%) | IC-DCR (95% CI) (intracranial, 10mg (N=1)): 1 (100) (2.5, 100.0) n (%) | Median IC-DOR (95% CI) (intracranial, 10mg (N=1)): 5.55 (-, -) months | Median IC-TTR (range) (intracranial, 10mg (N=1)): 1.35 (1.35, 1.35) months | BOR CR (intracranial, 20mg (N=1)): 0 n (%) | BOR NE (intracranial, 20mg (N=1)): 0 n (%) | BOR PD (intracranial, 20mg (N=1)): 0 n (%) | BOR PR (intracranial, 20mg (N=1)): 1 (100) n (%) | BOR SD (intracranial, 20mg (N=1)): 0 n (%) | Confirmed IC-ORR (95% CI) (intracranial, 20mg (N=1)): 1 (100) (2.5, 100.0) n (%) | IC-DCR (95% CI) (intracranial, 20mg (N=1)): 1 (100) (2.5, 100.0) n (%) | Median IC-TTR (range) (intracranial, 20mg (N=1)): 1.35 (1.35, 1.35) months | BOR CR (intracranial, 40mg (N=4)): 0 n (%) | BOR NE (intracranial, 40mg (N=4)): 1 (25.0) n (%) | BOR PD (intracranial, 40mg (N=4)): 0 n (%) | BOR PR (intracranial, 40mg (N=4)): 0 n (%) | BOR SD (intracranial, 40mg (N=4)): 3 (75.0) n (%) | Confirmed IC-ORR (95% CI) (intracranial, 40mg (N=4)): 0 (0.0, 60.2) n (%) | IC-DCR (95% CI) (intracranial, 40mg (N=4)): 3 (75.0) (19.4, 99.4) n (%) | BOR CR (intracranial, 60mg (N=2)): 0 n (%) | BOR NE (intracranial, 60mg (N=2)): 0 n (%) | BOR PD (intracranial, 60mg (N=2)): 0 n (%) | BOR PR (intracranial, 60mg (N=2)): 2 (100) n (%) | BOR SD (intracranial, 60mg (N=2)): 0 n (%) | Confirmed IC-ORR (95% CI) (intracranial, 60mg (N=2)): 2 (100) (15.8, 100.0) n (%) | IC-DCR (95% CI) (intracranial, 60mg (N=2)): 2 (100) (15.8, 100.0) n (%) | Median IC-DOR (95% CI) (intracranial, 60mg (N=2)): 17.97 (-, -) months | Median IC-TTR (range) (intracranial, 60mg (N=2)): 4.11 (1.35, 6.87) months | BOR CR (intracranial, 80mg (N=4)): 0 n (%) | BOR NE (intracranial, 80mg (N=4)): 1 (25.0) n (%) | BOR PD (intracranial, 80mg (N=4)): 0 n (%) | BOR PR (intracranial, 80mg (N=4)): 1 (25.0) n (%) | BOR SD (intracranial, 80mg (N=4)): 2 (50.0) n (%) | Confirmed IC-ORR (95% CI) (intracranial, 80mg (N=4)): 1 (25.0) (0.6, 80.6) n (%) | IC-DCR (95% CI) (intracranial, 80mg (N=4)): 3 (75.0) (19.4, 99.4) n (%) | Median IC-TTR (range) (intracranial, 80mg (N=4)): 1.51 (1.51, 1.51) months | BOR CR (intracranial, 100mg (N=2)): 0 n (%) | BOR NE (intracranial, 100mg (N=2)): 0 n (%) | BOR PD (intracranial, 100mg (N=2)): 0 n (%) | BOR PR (intracranial, 100mg (N=2)): 0 n (%) | BOR SD (intracranial, 100mg (N=2)): 2 (100) n (%) | Confirmed IC-ORR (95% CI) (intracranial, 100mg (N=2)): 0 (0.0, 84.2) n (%) | IC-DCR (95% CI) (intracranial, 100mg (N=2)): 2 (100) (15.8, 100.0) n (%) | BOR CR (intracranial, 125mg (N=1)): 0 n (%) | BOR NE (intracranial, 125mg (N=1)): 0 n (%) | BOR PD (intracranial, 125mg (N=1)): 0 n (%) | BOR PR (intracranial, 125mg (N=1)): 0 n (%) | BOR SD (intracranial, 125mg (N=1)): 1 (100) n (%) | Confirmed IC-ORR (95% CI) (intracranial, 125mg (N=1)): 0 (0.0, 97.5) n (%) | IC-DCR (95% CI) (intracranial, 125mg (N=1)): 1 (100) (2.5,100.0) n (%) | BOR CR (systemic, 5mg (N=1)): 0 n (%) | BOR NE (systemic, 5mg (N=1)): 0 n (%) | BOR PD (systemic, 5mg (N=1)): 0 n (%) | BOR PR (systemic, 5mg (N=1)): 0 n (%) | BOR SD (systemic, 5mg (N=1)): 1 (100) n (%) | Confirmed ORR (95% CI) (systemic, 5mg (N=1)): 0 (0.0, 97.5) n (%)

From patent EP4810038A1, “METHOD FOR TREATING ALK-POSITIVE OR ROS1-POSITIVE NON-SMALL CELL LUNG CANCER” (Shenzhen TargetRx Co., Ltd., priority 2023, dated 2025)
